Source: ChEMBL document CHEMBL1129045, “Potential antitumor agents. 24. Synthesis and pharmacological behavior of imidazo[2,1-b]thiazole guanylhydrazones bearing at least one chlorine” (J Med Chem, 1996)
≈ marks a conversion by molar mass, not a printed value.

Key:
[1] = system: Mus musculus; assay: Compound was tested in vivo antitumor activity against Ehrlich ascites in mice at 12.5 mg/kg ip; type: functional; details: route intraperitoneal
[2] = system: HeLa; assay: Compound was tested in vitro for cytotoxicity against HeLa cells.; type: functional, cell-based, Homo sapiens
[3] = Compound was tested for initial contractile force 0.4+/-0.1 g (% deltabase line value)
[4] = system: Mus musculus; assay: Compound was tested in vivo antitumor activity against Ehrlich ascites in mice at 100 mg/kg ip; type: functional; details: route intraperitoneal
[5] = system: Mus musculus; assay: Compound was tested in vivo antitumor activity against Ehrlich ascites in mice at 50 mg/kg ip; type: functional; details: route intraperitoneal
[6] = system: Mus musculus; assay: Compound was tested in vivo antitumor activity against Ehrlich ascites in mice at 6.25 mg/kg ip; type: functional; details: route intraperitoneal
[7] = system: Mus musculus; assay: Compound was tested in vivo antitumor activity against Ehrlich ascites in mice at 25 mg/kg ip; type: functional; details: route intraperitoneal
[8] = species on record: Cavia porcellus; assay: Positive inotropic activity in isolated guinea pig atria, Concentration producing 50% of the maximal effect; type: functional
[9] = system: Mus musculus; assay: Compound was tested in vivo antitumor activity against Ehrlich ascites in mice at 1 mg/kg ip; type: functional; details: route intraperitoneal
[10] = Compound was tested for concentration to obtain Emax (microg)

Work on `N=C(N)N/N=C/c1c(-c2ccc(Cl)c(Cl)c2Cl)nc2sccn12` yielded a T/C [1] of 180% and an IC50 [2] of 2 mg/L (≈ 5.16 µM).

With `N=C(N)N/N=C/c1c(Cl)nc2sc(Cl)cn12` the Delta [3] was 135%, the IC50 [2] was > 10 mg/L and the T/C [4] was 120%.

For `Cc1csc2nc(Cl)c(/C=N/N=C(N)N)n12`, the Delta [3] was 134%, the T/C [5] was 106% and the IC50 [2] was > 10 mg/L.

Work on `N=C(N)N/N=C/c1c(-c2ccc(Cl)cc2)nc2sc(Cl)cn12` yielded a T/C [1] of 166%, a Delta [3] of 100% and an IC50 [2] of 0.6 mg/L (≈ 1.7 µM).

Molecule `N=C(N)N/N=C/c1c(-c2ccc(Cl)cc2Cl)nc2n1CCS2` has a Delta [3] of 119%, a T/C [5] of 200% and an IC50 [2] of 5 mg/L (≈ 14.1 µM).

`Cc1sc2nc(-c3ccc(Cl)cc3)c(/C=N/N=C(N)N)n2c1C` gave a T/C [1] of 140%, a Delta [3] of 118% and an IC50 [2] of 2 mg/L (≈ 5.77 µM).

With `Cc1cn2c(/C=N/N=C(N)N)c(-c3ccc(Cl)cc3)nc2s1` the Delta [3] was 106%, the IC50 [2] was 1.5 mg/L (≈ 4.51 µM) and the T/C [6] was 166%.

In the case of `Cc1csc2nc(-c3ccc(Cl)cc3)c(/C=N/N=C(N)N)n12`, the Delta [3] was 115%, the IC50 [2] was 2 mg/L (≈ 6.01 µM) and the T/C [7] was 133%.

With `N=C(N)N/N=C/c1c(-c2ccc(Cl)c(Cl)c2Cl)nc2n1CCS2` the Delta [3] was 111%, the T/C [5] was 166% and the IC50 [2] was 2.5 mg/L (≈ 6.42 µM).

`N=C(N)N/N=C/c1c(-c2ccc(Cl)cc2Cl)nc2sccn12` showed a Delta [3] of 100%, an IC50 [2] of 2.5 mg/L (≈ 7.08 µM) and a T/C [7] of 146%.

For `Cc1sc2nc(Cl)c(/C=N/N=C(N)N)n2c1C`, the Delta [3] was 137%, the T/C [5] was 100% and the IC50 [2] was > 10 mg/L.

For `Cc1cn2c(/C=N/N=C(N)N)c(Cl)nc2s1`, the Delta [3] was 146%, the T/C [5] was 106% and the IC50 [2] was > 10 mg/L. It also gave an EC50 [8] of 0.016 mg.

For `COc1cccc2c1C(=O)c1c(O)c3c(c(O)c1C2=O)C[C@@](O)(C(=O)CO)C[C@@H]3O[C@H]1C[C@H](N)[C@H](O)[C@H](C)O1` [DOXORUBICIN], the T/C [9] was 200% and the IC50 [2] was 0.005 mg/L (≈ 0.0092 µM).

`O=c1[nH]cc(F)c(=O)[nH]1` [FLUOROURACIL] showed an IC50 [2] of 6 mg/L (≈ 46.1 µM) and a T/C [4] of 180%.

Molecule `COc1cc([S+](C)[O-])ccc1-c1nc2ncccc2[nH]1` (configuration not stated) [SULMAZOLE] has an Emax [10] of 350 µg and a Delta [3] of 163%.
